Assay results reported in a flash point compilation (Sun et al. 2020).

Assays:
[1] = not given; remark: listed apart in the source
[2] = not given; remark: listed apart in the source
[3] = not given; remark: listed apart in the source
[4] = not given; remark: listed apart in the source

Compound | flash point [°C] | flash point [2] [°C] | other results
CC(C)CO [2-methylpropan-1-ol] | – | 30.00 | flash point [3]: 28.00 °C
CC(C)(C)N [2-methylpropan-2-amine] | – | -38.00 | flash point [3]: 10.00 °C
C=CCNCCC[Si](OC)(OC)OC [3-(N-ALLYLAMINO)PROPYLTRIMETHOXYSILANE] | – | – | flash point [4]: 88.00 °C
CCO[Si](CCCN)(OCC)OCC [3-AMINOPROPYLTRIETHOXYSILANE] | – | – | flash point [4]: 104.00 °C
CO[Si](CCCN)(OC)OC [3-AMINOPROPYLTRIMETHOXYSILANE] | – | – | flash point [4]: 83.00 °C
C[Si](C)(C)CCCN [3-AMINOPROPYLTRIMETHYLSILANE] | – | – | flash point [4]: 59.00 °C
COCCOCCO[Si](CCCN)(OCCOCCOC)OCCOCCOC [3-AMINOPROPYLTRIS(METHOXYETHOXYETHOXY)SILANE] | – | – | flash point [4]: 68.00 °C
C=CC(=O)OCCC[Si](C)(C)OC [(3-ACRYLOXYPROPYL)DIMETHYLMETHOXYSILANE] | – | – | flash point [4]: 85.00 °C
C=CC(=O)OCCC[Si](OC)(OC)OC [(3-ACRYLOXYPROPYL)TRIMETHOXYSILANE] | – | – | flash point [4]: 123.00 °C
C=CC(=O)OCCC[Si](O[Si](C)(C)C)(O[Si](C)(C)C)O[Si](C)(C)C [(3-ACRYLOXYPROPYL)TRIS(TRIMETHYLSILOXY)SILANE] | – | – | flash point [4]: 93.00 °C
C[Si](C)(C)CN=[N+]=[N-] [(AZIDOMETHYL)TRIMETHYLSILANE] | – | – | flash point [4]: 6.00 °C
CC(=O)OCC[Si](C)(C)Cl [ACETOXYETHYLDIMETHYLCHLOROSILANE] | – | – | flash point [4]: 63.00 °C
CC(=O)OCC[Si](C)(Cl)Cl [ACETOXYETHYLMETHYLDICHLOROSILANE] | – | – | flash point [4]: 65.00 °C
CCO[Si](CCOC(C)=O)(OCC)OCC [ACETOXYETHYLTRIETHOXYSILANE] | – | – | flash point [4]: 99.00 °C
CC(=O)O[Si](C)(C)C [ACETOXYTRIMETHYLSILANE] | – | – | flash point [4]: 4.00 °C
CC(=O)[Si](C)(C)C [ACETYLTRIMETHYLSILANE] | – | – | flash point [4]: 8.00 °C
CCN(CC)C(C)=O [N,N-diethylacetamide] | – | 70.00 | –
CCN(C=O)CC [N,N-diethylformamide] | – | 60.00 | –
C1CCC(NC2CCCCC2)CC1 [N-cyclohexylcyclohexanamine] | – | 103.00 | –

Compound | flash point [°C] | flash point [2] [°C] | other results
CC=CC [but-2-ene] | – | -73.30 | –
OCC#CCO [but-2-yne-1,4-diol] | – | 152.00 | –
ClCOCCl [chloro-(chloromethoxy)methane] | – | 19.00 | –
CC(C)c1ccccc1 [cumene] | 31.1 | – | –
C1=CCC=C1 [cyclopenta-1,3-diene] | – | 0.00 | –
NCCN [ethane-1,2-diamine] | – | 57.20 | –
CCOCC [ethoxyethane] | – | -40.00 | flash point [3]: -45.00 °C
CCCCCCCN [heptan-1-amine] | – | 44.00 | –
OCCCCCCO [hexane-1,6-diol] | – | 147.00 | –
CC(C)c1ccccc1 [isopropylbenzene] | – | 46.00 | –
CCc1ccccc1C [o -ethyltoluene] | 39.1 | – | –
Cc1ccc(C)cc1 [p -xylene] | 25.1 | – | –
NCc1ccccc1 [phenylmethanamine] | – | 72.00 | –
C=CCN [prop-2-en-1-amine] | – | -28.00 | flash point [3]: -29.00 °C
CC(O)CO (stereo not given) [propane-1,2-diol] | – | 104.44 | –
CCCc1ccccc1 [propylbenzene] | 42.1 | – | flash point [1]: 47 °C
C1CCOC1 [tetrahydrofuran] | – | -25.56 | flash point [1]: -21 °C
Cc1ccccc1 [toluene] | 7.1 | – | –

More lines, main results first:

flash point [°C] | flash point [2] [°C] | Compound | other results
72 | – | CCCc1cccc(C)c1C [1,2-dimethyl-3-propylbenzene] | –
68.1 | – | Cc1ccc(C(C)C)cc1C [1,2-dimethyl-4-isopropylbenzene] | –
81.1 | – | CCc1cc(CC)cc(CC)c1 [1,3,5-triethylbenzene] | –
72.2 | – | CCc1ccc(C)c(CC)c1 [1,3-diethyl-4-methylbenzene] | –
70 | – | CCc1cc(C)cc(CC)c1 [1,3-diethyl-5-methylbenzene] | –
76.8 | – | CC(C)c1cccc(C(C)C)c1 [1,3-diisopropylbenzene] | flash point [1]: 76 °C
67.2 | – | Cc1ccc(C(C)C)c(C)c1 [1,3-dimethyl-4-isopropylbenzene] | –
73.0 | – | CCc1ccc(CC)c(C)c1 [1,4-diethyl-2-methylbenzene] | –
76.1 | – | CC(C)c1ccc(C(C)C)cc1 [1,4-diisopropylbenzene] | –
72.5 | – | CCCCc1ccccc1C [1-butyl-2-methylbenzene] | –
69.7 | – | CCCc1cccc(CC)c1 [1-ethyl-3-propylbenzene] | –
67.4 | – | Cc1ccc(CC(C)C)cc1 [1-isobutyl-4-methylbenzene] | –
81.4 | – | CCC(C)c1ccc(C)cc1C (stereo not given) [1-sec -butyl-2,4-dimethylbenzene] | –
63.1 | – | CCC(C)c1cccc(C)c1 (stereo not given) [1-sec -butyl-3-methylbenzene] | –
65 | – | CCC(C)c1ccc(C)cc1 (stereo not given) [1-sec -butyl-4-methylbenzene] | –
60.6 | – | Cc1cccc(C(C)(C)C)c1 [1-tert -butyl-3-methylbenzene] | –
76.0 | – | CCc1ccc(C(C)(C)C)cc1 [1-tert -butyl-4-ethylbenzene] | –
56.1 | – | CCc1cc(C)ccc1C [2-ethyl-p -xylene] | –
58.1 | – | CCc1ccc(C)c(C)c1 [4-ethyl-o -xylene] | –

flash point [°C] | flash point [2] [°C] | Compound | other results
54.1 | – | Cc1ccc(C(C)(C)C)cc1 [4-tert -butyltoluene] | –
57.0 | – | CC(C)C(C)c1ccccc1 (stereo not given) [(1,2-dimethylpropyl)benzene] | –
74.2 | – | CCCC(CC)c1ccccc1 (stereo not given) [(1-ethylbutyl)benzene] | –
100.1 | – | CCCCCCC(C)c1ccccc1 (stereo not given) [(1-methylheptyl)benzene] | –
87.2 | – | CCCCCC(C)c1ccccc1 (stereo not given) [(1-methylhexyl)benzene] | –
– | 73.00 | CCCCCCCO [heptan-1-ol] | flash point [3]: 77.00 °C
62.1 | – | CC(C)CCc1ccccc1 [isopentylbenzene] | –
47.1 | – | Cc1cccc(C(C)C)c1 [m -cymene] | –
– | 80.00 | CCCCCCCCCO [nonan-1-ol] | flash point [3]: 74.00 °C
50.1 | – | Cc1ccccc1C(C)C [o -cymene] | –
55.1 | – | CCc1ccccc1CC [o -diethylbenzene] | –
57.8 | – | CCCc1ccccc1C [o -propyltoluene] | –
– | 16.00 | CCCCCCCC [octane] | flash point [3]: 13.00 °C
55.1 | – | CCc1ccc(CC)cc1 [p -diethylbenzene] | –
36.1 | – | CCc1ccc(C)cc1 [p -ethyltoluene] | –
– | 40.00 | CCC(O)CC [pentan-3-ol] | –
– | 135.00 | c1ccc(COCc2ccccc2)cc1 [phenylmethoxymethylbenzene] | –
52 | – | CCC(C)c1ccccc1 (stereo not given) [sec -butylbenzene] | –
60.7 | – | CCCC(C)c1ccccc1 (stereo not given) [sec -pentylbenzene] | –
